Experiments:
[1] = system: HEK293 cells; test: Preliminary screening as mRNA vectors, EGFP mRNA transfection of HEK293 cells; assay type: cell-based; conditions: HEK293 cells, 96-well plates, EGFP mRNA 50 ng per well; percentage of GFP fluorescent cells relative to total number of cells (Hoechst)
Method in brief: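 Screening format: EGFP mRNA transfection (50 ng/well) into HEK293 in 10% FBS-supplemented DMEM. Percent green fluorescent cells, normalised to Hoechst nuclear count, gave the value; Lipofectamine2000 was the reference transfectant.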

[2] = system: HEK293 cells; test: Preliminary screening as DNA vectors, GFP transfection of HEK293 cells; assay type: cell-based; conditions: HEK293 cells; lipid/DOPE liposome with 75 ng plasmid DNA (psin-EGFP-IRES-Puro); number of cells expressing GFP divided by total number of nuclei (Hoechst)
Method in brief: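 First, amino lipid and DOPE were vortexed in sodium acetate buffer (pH 5.6) to form liposomes. Next, these were held with 75 ng EGFP plasmid at room temperature for 30 min. Finally, HEK293 cells were added, cultured at 37° C., Hoechst-stained, and GFP+/total nuclei scored by imaging.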

Structure (SMILES): CCCCCCCCCCCCCCCCNc1nc(NCCCCCCC)nc(NCCN2CCCC2)n1 [Compound N7N16D3]
- Absolute mRNA transfection efficiency in HEK293 cells [1]: 1.3%
- Absolute DNA transfection efficiency in HEK293 cells [2]: 2.3%

Structure (SMILES): CCCCCCCCCNc1nc(NCCCCCCC)nc(NCCCN(C)C)n1 [Compound N7N9D6]
- Absolute mRNA transfection efficiency in HEK293 cells [1]: 0.0%
- Absolute DNA transfection efficiency in HEK293 cells [2]: 0.0%

Structure (SMILES): CCCCCCCCCCCCCCCCCCSc1nc(NCCCN(C)C)nc(SCCCCCCCCC)n1 [Compound S9S18D6]
- Absolute mRNA transfection efficiency in HEK293 cells [1]: 11.6%
- Absolute DNA transfection efficiency in HEK293 cells [2]: 1.7%

Structure (SMILES): CCCCCCCCCCCCCCCCCCNc1nc(NCCCCCCCCCCCC)nc(NCCN2CCCCC2)n1 [Compound N12N18D4]
- Absolute mRNA transfection efficiency in HEK293 cells [1]: 1.9%
- Absolute DNA transfection efficiency in HEK293 cells [2]: 0.9%

Structure (SMILES): CCCCCCCCCCCCCCCCCCNc1nc(NCCCCCCC)nc(NCCCN2CCN(C)CC2)n1 [Compound N7N18D9]
- Absolute mRNA transfection efficiency in HEK293 cells [1]: 0.5%
- Absolute DNA transfection efficiency in HEK293 cells [2]: 2.1%

Structure (SMILES): CCCCCCCCNc1nc(NCCCCCC)nc(NCCCN2CCN(C)CC2)n1 [Compound N6N8D9]
- Absolute mRNA transfection efficiency in HEK293 cells [1]: 0.0%
- Absolute DNA transfection efficiency in HEK293 cells [2]: 0.0%

Structure (SMILES): CCCCCCCCCCCCCCCCNc1nc(NCCCCCCCCCCCCCCCC)nc(NCCN2CCOCC2)n1 [Compound N16N16D2]
- Absolute mRNA transfection efficiency in HEK293 cells [1]: 0.0%
- Absolute DNA transfection efficiency in HEK293 cells [2]: 0.2%

Structure (SMILES): CCCCCCCCCCCCCCCCSc1nc(NCC2CCN(C)CC2)nc(SCCCCCCCCCCC)n1 [Compound S11S16D10]
- Absolute mRNA transfection efficiency in HEK293 cells [1]: 89.2%
- Absolute DNA transfection efficiency in HEK293 cells [2]: 49.0%

Structure (SMILES): CCCCCCCCCCSc1nc(NCCN2CCOCC2)nc(SCCCCCCCCCC)n1 [Compound S10S10D2]
- Absolute mRNA transfection efficiency in HEK293 cells [1]: 0.4%
- Absolute DNA transfection efficiency in HEK293 cells [2]: 4.0%

Structure (SMILES): CCCCCCCCCCCCCCCCNc1nc(NCCCCCCCCCCCCCCCC)nc(NCCN(CC)CC)n1 [Compound N16N16D7]
- Absolute mRNA transfection efficiency in HEK293 cells [1]: 7.9%
- Absolute DNA transfection efficiency in HEK293 cells [2]: 0.0%

Structure (SMILES): CCCCCCCCCCCCN(CCCCCCCCCCCC)c1nc(NCCCN2CCN(C)CC2)nc(N(CCCCCCCCCCCC)CCCCCCCCCCCC)n1 [2N12^2N12D9]
- Absolute mRNA transfection efficiency in HEK293 cells [1]: 0.0%
- Absolute DNA transfection efficiency in HEK293 cells [2]: 0.2%

Structure (SMILES): CCCCCCCCCCCCNc1nc(NCCCCCCCCC)nc(NCC2CCN(C)CC2)n1 [Compound N9N12D10]
- Absolute mRNA transfection efficiency in HEK293 cells [1]: 0.4%
- Absolute DNA transfection efficiency in HEK293 cells [2]: 0.0%

Structure (SMILES): CCCCCCCCCCCCCCCNc1nc(NCCCN2CCOCC2)nc(N(CCCCCCCCCCCC)CCCCCCCCCCCC)n1 [N15^2N12D8]
- Absolute mRNA transfection efficiency in HEK293 cells [1]: 0.9%
- Absolute DNA transfection efficiency in HEK293 cells [2]: 0.9%

Structure (SMILES): CCCCCCCCCCCCCCCCCCSc1nc(NCCCN2CCOCC2)nc(SCCCCCCCCC)n1 [Compound S9S18D8]
- Absolute mRNA transfection efficiency in HEK293 cells [1]: 12.4%
- Absolute DNA transfection efficiency in HEK293 cells [2]: 27.0%

Structure (SMILES): CCCCCCCCCCCCCNc1nc(NCCCCCCCCCCCCC)nc(NCCN2CCOCC2)n1 [Compound N13N13D2]
- Absolute mRNA transfection efficiency in HEK293 cells [1]: 0.9%
- Absolute DNA transfection efficiency in HEK293 cells [2]: 0.0%

Structure (SMILES): CCCCCCCCCCCCCCCNc1nc(NCCCCCCCCCCCCC)nc(NCCN2CCOCC2)n1 [Compound N13N15D2]
- Absolute mRNA transfection efficiency in HEK293 cells [1]: 1.4%
- Absolute DNA transfection efficiency in HEK293 cells [2]: 0.0%

Structure (SMILES): CCCCCCCCCCCCCCCCCCSc1nc(NCCN2CCCC2)nc(SCCCCCCCCCCCCCC)n1 [Compound S14S18D3]
- Absolute mRNA transfection efficiency in HEK293 cells [1]: 0.1%
- Absolute DNA transfection efficiency in HEK293 cells [2]: 2.8%

Structure (SMILES): CCCCCCCCCCCCCCCNc1nc(NCCCCCCCCCCC)nc(NCCCN(C)C)n1 [Compound N11N15D6]
- Absolute mRNA transfection efficiency in HEK293 cells [1]: 0.3%
- Absolute DNA transfection efficiency in HEK293 cells [2]: 1.6%

Structure (SMILES): CCCCCCCCCCCCCCCSc1nc(NCCN2CCN(C)CC2)nc(SCCCCCCCCCCCCCCC)n1 [Compound S15S15D5]
- Absolute mRNA transfection efficiency in HEK293 cells [1]: 0.3%
- Absolute DNA transfection efficiency in HEK293 cells [2]: 0.3%

Structure (SMILES): CCCCCCCCCCCCCCCCCCSc1nc(NCCN(C)C)nc(SCCCCCCCCCCCCCCCC)n1 [Compound S16S18D1]
- Absolute mRNA transfection efficiency in HEK293 cells [1]: 2.1%
- Absolute DNA transfection efficiency in HEK293 cells [2]: 1.2%

Structure (SMILES): CCCCCCCCCCCCCCCCCCNc1nc(NCCCCCCCCC)nc(NCCCN2CCN(C)CC2)n1 [Compound N9N18D9]
- Absolute mRNA transfection efficiency in HEK293 cells [1]: 3.1%
- Absolute DNA transfection efficiency in HEK293 cells [2]: 0.3%

Structure (SMILES): CCCCCCCCCSc1nc(NCCCN2CCOCC2)nc(SCCCCCCCCC)n1 [Compound S9S9D8]
- Absolute mRNA transfection efficiency in HEK293 cells [1]: 14.8%
- Absolute DNA transfection efficiency in HEK293 cells [2]: 19.1%

Structure (SMILES): CCCCCCCCCCCNc1nc(NCCCCCCCCC)nc(NCCCN2CCN(C)CC2)n1 [Compound N9N11D9]
- Absolute mRNA transfection efficiency in HEK293 cells [1]: 0.7%
- Absolute DNA transfection efficiency in HEK293 cells [2]: 0.0%

Structure (SMILES): CCCCCCCCCCCCN(CCCCCCCCCCCC)c1nc(NCCCCCCCC)nc(NCCCN(C)C)n1 [N8^2N12D6]
- Absolute mRNA transfection efficiency in HEK293 cells [1]: 0.9%
- Absolute DNA transfection efficiency in HEK293 cells [2]: 0.0%

Structure (SMILES): CCCCCCCCCCCCCCCCNc1nc(NCCCCCCCCCCC)nc(NCCN2CCCCC2)n1 [Compound N11N16D4]
- Absolute mRNA transfection efficiency in HEK293 cells [1]: 0.0%
- Absolute DNA transfection efficiency in HEK293 cells [2]: 0.1%

Structure (SMILES): CCCCCCCCCCCCCCCCNc1nc(NCCCCCCCCCCCCCCC)nc(NCCCN2CCN(C)CC2)n1 [Compound N15N16D9]
- Absolute mRNA transfection efficiency in HEK293 cells [1]: 1.7%
- Absolute DNA transfection efficiency in HEK293 cells [2]: 2.1%

Structure (SMILES): CCCCCCCCCCCCSc1nc(NCCN(CC)CC)nc(SCCCCCCCCCC)n1 [Compound S10S12D7]
- Absolute mRNA transfection efficiency in HEK293 cells [1]: 0.0%
- Absolute DNA transfection efficiency in HEK293 cells [2]: 7.2%

Structure (SMILES): CCCCCCCNc1nc(NCCCCCCC)nc(NCCN(CC)CC)n1 [Compound N7N7D7]
- Absolute mRNA transfection efficiency in HEK293 cells [1]: 0.0%
- Absolute DNA transfection efficiency in HEK293 cells [2]: 0.0%

Structure (SMILES): CCCCCCCCCCCCCNc1nc(NCCCCCCCC)nc(NCCN(CC)CC)n1 [Compound N8N13D7]
- Absolute mRNA transfection efficiency in HEK293 cells [1]: 0.0%
- Absolute DNA transfection efficiency in HEK293 cells [2]: 0.0%

Structure (SMILES): CCCCCCCCCCCCNc1nc(NCCCCCCC)nc(NCCN(CC)CC)n1 [Compound N7N12D7]
- Absolute mRNA transfection efficiency in HEK293 cells [1]: 0.0%
- Absolute DNA transfection efficiency in HEK293 cells [2]: 0.0%

Structure (SMILES): CCCCCCCCCCCCCCCCNc1nc(NCCCCCCCCCCCCCCCC)nc(NCCCN(C)C)n1 [Compound N16N16D6]
- Absolute mRNA transfection efficiency in HEK293 cells [1]: 0.0%
- Absolute DNA transfection efficiency in HEK293 cells [2]: 0.9%

Structure (SMILES): CCCCCCCCCCCCCCSc1nc(NCCN2CCCCC2)nc(SCCCCCCCCCCCC)n1 [Compound S12S14D4]
- Absolute mRNA transfection efficiency in HEK293 cells [1]: 14.0%
- Absolute DNA transfection efficiency in HEK293 cells [2]: 6.7%

Structure (SMILES): CCCCCCCCCCCCNc1nc(NCCCCCCC)nc(NCCN2CCOCC2)n1 [Compound N7N12D2]
- Absolute mRNA transfection efficiency in HEK293 cells [1]: 0.0%
- Absolute DNA transfection efficiency in HEK293 cells [2]: 0.0%

Structure (SMILES): CCCCCCCCCCCCSc1nc(NCCCN2CCOCC2)nc(SCCCCCCCCCC)n1 [Compound S10S12D8]
- Absolute mRNA transfection efficiency in HEK293 cells [1]: 5.4%
- Absolute DNA transfection efficiency in HEK293 cells [2]: 20.9%

Structure (SMILES): CCCCCCCCCCSc1nc(NCCCN2CCOCC2)nc(SCCCCCCCCC)n1 [Compound S9S10D8]
- Absolute mRNA transfection efficiency in HEK293 cells [1]: 9.8%
- Absolute DNA transfection efficiency in HEK293 cells [2]: 22.5%

Structure (SMILES): CCCCCCCCCNc1nc(NCCCCCCCC)nc(NCCN(CC)CC)n1 [Compound N8N9D7]
- Absolute mRNA transfection efficiency in HEK293 cells [1]: 0.0%
- Absolute DNA transfection efficiency in HEK293 cells [2]: 0.0%
